Test results: ChEMBL document CHEMBL1201862, “PubChem BioAssay data set” (2004)
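Interpolation was linear, between the two tested concentrations surrounding the appropriate level; five concentrations were tested over 48 hours in 96-well plates. GI50 is the concentration that inhibits growth by half.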 Active and inactive are the calls of the source. Rule as the data show it: active = GI50 up to about 1.1 µM and inactive = higher.

Tests used:
Test in all cases: NCI tumour cell line growth inhibition, 48 h
K562 = tested on: K562
OVCAR-5 = tested on: OVCAR-5
SK-MEL-28 = tested on: SK-MEL-28
HL-60 = tested on: HL-60
SF-295 = tested on: SF-295
TK-10 = tested on: TK-10
SNB-78 = tested on: SNB-78
HT-29 = tested on: HT-29
UACC-62 = tested on: UACC-62
SW-620 = tested on: SW-620
HCC 2998 = tested on: HCC 2998
HCT-116 = tested on: HCT-116
RPMI-8226 = tested on: RPMI-8226
SR = tested on: SR
A549 = tested on: A549
NCI-H522 = tested on: NCI-H522
T47D = tested on: T47D
MDA-N = tested on: MDA-N
MDA-MB-435 = tested on: MDA-MB-435
MCF7 = tested on: MCF7

| SMILES | GI50 (K562) | GI50 (OVCAR-5) | GI50 (SK-MEL-28) | GI50 (HL-60) | GI50 (SF-295) | GI50 (TK-10) | GI50 (SNB-78) | GI50 (HT-29) | GI50 (UACC-62) | GI50 (SW-620) | GI50 (HCC 2998) | GI50 (HCT-116) | GI50 (RPMI-8226) | GI50 (SR) | GI50 (A549) | GI50 (NCI-H522) | GI50 (T47D) | GI50 (MDA-N) | GI50 (MDA-MB-435) | GI50 (MCF7) |
| --- | --- | --- | --- | --- | --- | --- | --- | --- | --- | --- | --- | --- | --- | --- | --- | --- | --- | --- | --- | --- |
| CC(=O)CCn1[nH]c(=O)c(Cl)c(Cl)c1=O | > 100 µM (inactive) | > 100 µM (inactive) | > 100 µM (inactive) | > 100 µM (inactive) | > 100 µM (inactive) | > 100 µM (inactive) | > 100 µM (inactive) | > 100 µM (inactive) | > 100 µM (inactive) | 15 µM (inactive) | > 100 µM (inactive) | > 100 µM (inactive) | > 100 µM (inactive) | > 100 µM (inactive) | > 100 µM (inactive) | – | – | – | – | – |
| O=[N+]([O-])c1ccc2nc3ccscc-3c2c1 | 4.6 µM (inactive) | 35.3 µM (inactive) | 27.8 µM (inactive) | 4.81 µM (inactive) | 24.2 µM (inactive) | 20.9 µM (inactive) | 23 µM (inactive) | 22.6 µM (inactive) | 21.4 µM (inactive) | 7.08 µM (inactive) | 15.2 µM (inactive) | – | 7.08 µM (inactive) | – | 18.3 µM (inactive) | 12.4 µM (inactive) | – | – | – | – |
| O=C1/C(=C/c2cccc([N+](=O)[O-])c2)COc2ccccc21 | 1.46 µM (inactive) | > 35 µM (inactive) | 2.92 µM (inactive) | 2.08 µM (inactive) | 11.2 µM (inactive) | 23 µM (inactive) | 6.53 µM (inactive) | 2.36 µM (inactive) | 1.67 µM (inactive) | 1.11 µM (active) | – | 1.76 µM (inactive) | 1.01 µM (active) | – | 41.2 µM (inactive) | 1.67 µM (inactive) | – | – | – | – |
| CCOC(=O)C1=C(Nc2ccc(NC3=C(C(=O)OCC)C(=O)CS3)cc2)SCC1=O | 30.5 µM (inactive) | 22.7 µM (inactive) | 16.8 µM (inactive) | 32.7 µM (inactive) | 26.5 µM (inactive) | 30.7 µM (inactive) | 33.6 µM (inactive) | 19.3 µM (inactive) | 16.9 µM (inactive) | 25.9 µM (inactive) | – | 18.5 µM (inactive) | 18.5 µM (inactive) | – | 30.3 µM (inactive) | 13.7 µM (inactive) | – | – | – | – |
| [N-]=[N+]=NCC1OCC(O)C(OCc2ccccc2)C1OCc1ccccc1 (stereo not given) | 51.4 µM (inactive) | > 100 µM (inactive) | > 100 µM (inactive) | 70.6 µM (inactive) | 79.3 µM (inactive) | > 100 µM (inactive) | – | 36.3 µM (inactive) | 31.9 µM (inactive) | > 100 µM (inactive) | 72.8 µM (inactive) | 95.9 µM (inactive) | > 100 µM (inactive) | 57.1 µM (inactive) | 70 µM (inactive) | 70 µM (inactive) | 25.1 µM (inactive) | > 100 µM (inactive) | > 100 µM (inactive) | > 100 µM (inactive) |
| CO[C@]12CC(=O)C3(C(C[C@H]4CC5CCC6=CC(=O)CC[C@]6(OC(C)=O)C5C[C@@]43C)C1)C1C[C@H]3[C@@H]4CCC5=CC(=O)CC[C@]5(OC(C)=O)[C@H]4CC[C@]3(C)C12 (stereo not given in full) | > 100 µM (inactive) | > 100 µM (inactive) | > 100 µM (inactive) | > 100 µM (inactive) | > 100 µM (inactive) | > 100 µM (inactive) | – | > 100 µM (inactive) | > 100 µM (inactive) | > 100 µM (inactive) | > 100 µM (inactive) | > 100 µM (inactive) | > 100 µM (inactive) | > 100 µM (inactive) | > 100 µM (inactive) | > 100 µM (inactive) | > 100 µM (inactive) | 58.2 µM (inactive) | > 100 µM (inactive) | > 100 µM (inactive) |
| O=C1N2Cc3c4ccc5c3CN3C(=O)N6Cc7c(ccc(c7CN1C6(c1ccccc1)C23c1ccccc1)OCCOCCNCCOCCO4)OCCOCCNCCOCCO5 (stereo not given) | 69.7 µM (inactive) | > 100 µM (inactive) | > 100 µM (inactive) | – | 65.5 µM (inactive) | 26.9 µM (inactive) | > 100 µM (inactive) | 13.9 µM (inactive) | 42.4 µM (inactive) | 18 µM (inactive) | 34.9 µM (inactive) | 30.8 µM (inactive) | 11.7 µM (inactive) | 54.7 µM (inactive) | 28.6 µM (inactive) | > 100 µM (inactive) | – | – | – | – |
| COc1cc(C(=O)CC2(O)C(=O)Nc3c(Cl)cc(Cl)cc32)ccc1O (stereo not given) | 35.5 µM (inactive) | > 100 µM (inactive) | > 100 µM (inactive) | 36.2 µM (inactive) | 69.2 µM (inactive) | > 100 µM (inactive) | 87.9 µM (inactive) | 29.4 µM (inactive) | – | 71.6 µM (inactive) | 31.5 µM (inactive) | – | 24.4 µM (inactive) | – | 55 µM (inactive) | 47.8 µM (inactive) | – | – | – | – |
| Cc1ccc(S(=O)(=O)C(C#N)c2nc3ccccc3nc2-n2ccnc2)cc1 (stereo not given) | > 100 µM (inactive) | > 100 µM (inactive) | > 100 µM (inactive) | > 100 µM (inactive) | > 100 µM (inactive) | > 100 µM (inactive) | > 100 µM (inactive) | > 100 µM (inactive) | – | – | > 100 µM (inactive) | > 100 µM (inactive) | > 100 µM (inactive) | – | > 100 µM (inactive) | > 100 µM (inactive) | – | – | – | – |
| CN(C)CC(C)(C)C(=O)/C=C/c1ccccc1 | 5.13 µM (inactive) | – | 16 µM (inactive) | 5.58 µM (inactive) | 17.5 µM (inactive) | 18.2 µM (inactive) | 14.7 µM (inactive) | 15.8 µM (inactive) | 13.2 µM (inactive) | 14.5 µM (inactive) | – | 13.5 µM (inactive) | 12.2 µM (inactive) | – | 28.8 µM (inactive) | 10.3 µM (inactive) | – | – | – | – |
| C=CCOC(=O)/C(=C\c1ccc(OC)c(OC)c1)c1ccc(OC)c(OC)c1 | 57.8 µM (inactive) | > 100 µM (inactive) | 33.1 µM (inactive) | 15.5 µM (inactive) | 52.1 µM (inactive) | 61.2 µM (inactive) | – | 28.1 µM (inactive) | 38.5 µM (inactive) | 54.1 µM (inactive) | > 100 µM (inactive) | 25.2 µM (inactive) | 13.4 µM (inactive) | 22 µM (inactive) | 61.7 µM (inactive) | > 100 µM (inactive) | 29.8 µM (inactive) | 60.7 µM (inactive) | 56 µM (inactive) | 47.2 µM (inactive) |
| C[C@@H]1C(=O)C[C@H]2C(C)(C)CCC[C@]2(C)[C@@]1(O)CCc1ccoc1 | > 100 µM (inactive) | > 100 µM (inactive) | > 100 µM (inactive) | 53 µM (inactive) | > 100 µM (inactive) | > 100 µM (inactive) | – | > 100 µM (inactive) | > 100 µM (inactive) | > 100 µM (inactive) | > 100 µM (inactive) | > 100 µM (inactive) | 84.3 µM (inactive) | 11.5 µM (inactive) | > 100 µM (inactive) | 66.4 µM (inactive) | 82 µM (inactive) | > 100 µM (inactive) | > 100 µM (inactive) | > 100 µM (inactive) |
| O=c1c2ccccc2nc2n1-c1ccccc1SC2 | 36.7 µM (inactive) | > 100 µM (inactive) | 71.3 µM (inactive) | – | > 100 µM (inactive) | > 100 µM (inactive) | > 100 µM (inactive) | > 100 µM (inactive) | 33.7 µM (inactive) | > 100 µM (inactive) | 81.1 µM (inactive) | 47.2 µM (inactive) | 24.3 µM (inactive) | – | > 100 µM (inactive) | 20.5 µM (inactive) | – | – | – | – |
| CC(C)N(CCCNc1c2ccccc2nc2cccc([N+](=O)[O-])c12)C(C)C | 0.0195 µM (active) | < 0.0191 µM (active) | < 0.01 µM (active) | < 0.018 µM (active) | < 0.0152 µM (active) | < 0.0205 µM (active) | – | < 0.01 µM (active) | 0.0358 µM (active) | < 0.01 µM (active) | < 0.01 µM (active) | < 0.01 µM (active) | < 0.01 µM (active) | < 0.01 µM (active) | < 0.0104 µM (active) | 0.0104 µM (active) | < 0.0269 µM (active) | 0.0131 µM (active) | < 0.0125 µM (active) | 0.0114 µM (active) |
| Cc1cccc(C)c1NC(=O)CCCC(=O)CC(=O)/C=C/c1ccccc1 | > 100 µM (inactive) | > 100 µM (inactive) | > 100 µM (inactive) | – | – | > 100 µM (inactive) | > 100 µM (inactive) | > 100 µM (inactive) | > 100 µM (inactive) | > 100 µM (inactive) | – | > 100 µM (inactive) | > 100 µM (inactive) | – | > 100 µM (inactive) | > 100 µM (inactive) | – | – | – | – |
| COc1c2ccoc2c(OC)c2oc(=O)ccc12 [ISOPIMPINELLIN] | > 100 µM (inactive) | > 100 µM (inactive) | > 100 µM (inactive) | > 100 µM (inactive) | > 100 µM (inactive) | > 100 µM (inactive) | – | > 100 µM (inactive) | 36.2 µM (inactive) | > 100 µM (inactive) | > 100 µM (inactive) | > 100 µM (inactive) | > 100 µM (inactive) | > 100 µM (inactive) | > 100 µM (inactive) | > 100 µM (inactive) | > 100 µM (inactive) | > 100 µM (inactive) | > 100 µM (inactive) | > 100 µM (inactive) |
| CCCC(=O)[O-].[Na+] [SODIUM BUTYRATE] | 1000 µM (inactive) | 7980 µM (inactive) | 4170 µM (inactive) | 721 µM (inactive) | 7660 µM (inactive) | 719 µM (inactive) | – | 4000 µM (inactive) | 1650 µM (inactive) | 2310 µM (inactive) | 400 µM (inactive) | 1390 µM (inactive) | 243 µM (inactive) | 789 µM (inactive) | 7830 µM (inactive) | 3440 µM (inactive) | 2420 µM (inactive) | 3580 µM (inactive) | 3470 µM (inactive) | 1000 µM (inactive) |
